# Assay results as given in ChEMBL document CHEMBL3885861, “Open TG-GATES”.
# Organism: Rattus norvegicus
# Assay: Open TG-GATES - Regimen: Single
# Format: toxicity, organism-based, Sprague-Dawley
# Set-up: regimen Single, gender Male, age 6 weeks
# Details: in vivo, po, 0 mg/kg, route gavage, dose level Control; for APTT / Bas / Eos / Fbg / Hb / Ht / Lym / MCH / MCHC / MCV / Mono / Neu / PT / Plat / RBC / Ret / WBC: tissue Blood; for KIDNEY_L / KIDNEY_R / KIDNEY_TOTAL: tissue Kidney; for LIVER: tissue Liver; for A/G / ALP / ALT / AST / BUN / CRE / Ca / Cl / DBIL / GLC / IP / K / LDH / Na / PL / RALB / TBIL / TC / TG / TP / gamma-GTP: tissue Plasma
smiles,measurement,setting,value
CCN(CC)N=O [N-NITROSODIETHYLAMINE],TERMINAL_BW,3 h,221 g
same,APTT,3 h,19.6 s
same,Bas,3 h,0.4%
same,Eos,3 h,1%
same,Fbg,3 h,223 mg/dL
same,Hb,3 h,13.7 g/dL
same,Ht,3 h,40%
same,Lym,3 h,77.8%
same,MCH,3 h,21.5 pg
same,MCHC,3 h,34.1%
same,MCV,3 h,63 fL
same,Mono,3 h,2.2%
same,Neu,3 h,18%
same,PT,3 h,12 s
same,Plat,3 h,127.6 x10_4/uL
same,RBC,3 h,635.6 x10_4/ul
same,Ret,3 h,7.2%
same,WBC,3 h,66.1 x10_2/uL
same,KIDNEY_L,3 h,1 g
same,KIDNEY_R,3 h,0.9 g
same,KIDNEY_TOTAL,3 h,1.9 g
same,LIVER,3 h,9.5 g
same,A/G,3 h,1.6
same,ALP,3 h,1051 IU/L
same,ALT,3 h,37.4 IU/L
same,AST,3 h,68.4 IU/L
same,BUN,3 h,10 mg/dL
same,CRE,3 h,0.4 mg/dL
same,Ca,3 h,10.3 mg/dL
same,Cl,3 h,102 meq/L
same,DBIL,3 h,0.07 mg/dL
same,GLC,3 h,194.2 mg/dL
same,IP,3 h,9 mg/dL
same,K,3 h,3.5 meq/L
same,LDH,3 h,169.8 IU/L
same,Na,3 h,140.8 meq/L
same,PL,3 h,132.8 mg/dL
same,RALB,3 h,3.4 g/dL
same,TBIL,3 h,0.1 mg/dL
same,TC,3 h,79.4 mg/dL
same,TG,3 h,42.4 mg/dL
same,TP,3 h,5.5 g/dL
same,gamma-GTP,3 h,1 IU/L
same,TERMINAL_BW,6 h,223.5 g
same,APTT,6 h,20.6 s
same,Bas,6 h,0.2%
same,Eos,6 h,1%
same,Fbg,6 h,218 mg/dL
same,Hb,6 h,13.5 g/dL
same,Ht,6 h,39.5%
same,Lym,6 h,79.6%
same,MCH,6 h,21.4 pg
same,MCHC,6 h,34.3%
same,MCV,6 h,62.5 fL
same,Mono,6 h,2.4%
same,Neu,6 h,16%
same,PT,6 h,12 s
same,Plat,6 h,130.4 x10_4/uL
same,RBC,6 h,631.8 x10_4/ul
same,Ret,6 h,6.9%
same,WBC,6 h,81.9 x10_2/uL
same,KIDNEY_L,6 h,1 g
same,KIDNEY_R,6 h,1 g
same,KIDNEY_TOTAL,6 h,2 g
same,LIVER,6 h,9.9 g
same,A/G,6 h,1.6
same,ALP,6 h,946.2 IU/L
same,ALT,6 h,34.2 IU/L
same,AST,6 h,72.4 IU/L
same,BUN,6 h,13.6 mg/dL
same,CRE,6 h,0.4 mg/dL
same,Ca,6 h,10.3 mg/dL
same,Cl,6 h,102.8 meq/L
same,DBIL,6 h,0.076 mg/dL
same,GLC,6 h,201.2 mg/dL
same,IP,6 h,7.8 mg/dL
same,K,6 h,3.6 meq/L
same,LDH,6 h,193 IU/L
same,Na,6 h,140.8 meq/L
same,PL,6 h,141.6 mg/dL
same,RALB,6 h,3.4 g/dL
same,TBIL,6 h,0.1 mg/dL
same,TC,6 h,82.2 mg/dL
same,TG,6 h,54.4 mg/dL
same,TP,6 h,5.5 g/dL
same,gamma-GTP,6 h,1.4 IU/L
same,TERMINAL_BW,9 h,228.4 g
same,APTT,9 h,18.5 s
same,Bas,9 h,0.8%
same,Eos,9 h,1.2%
same,Fbg,9 h,230.8 mg/dL
same,Hb,9 h,13.7 g/dL
same,Ht,9 h,39.7%
same,Lym,9 h,75.4%
same,MCH,9 h,21.6 pg
same,MCHC,9 h,34.5%
same,MCV,9 h,62.5 fL
same,Mono,9 h,2.6%
same,Neu,9 h,19.2%
same,PT,9 h,12 s
same,Plat,9 h,125.1 x10_4/uL
same,RBC,9 h,636 x10_4/ul
same,Ret,9 h,7.1%
same,WBC,9 h,92.6 x10_2/uL
same,KIDNEY_L,9 h,1 g
same,KIDNEY_R,9 h,1 g
same,KIDNEY_TOTAL,9 h,1.9 g
same,LIVER,9 h,10.1 g
same,A/G,9 h,1.6
same,ALP,9 h,875.4 IU/L
same,ALT,9 h,37.8 IU/L
same,AST,9 h,69 IU/L
same,BUN,9 h,13.8 mg/dL
same,CRE,9 h,0.4 mg/dL
same,Ca,9 h,10.4 mg/dL
same,Cl,9 h,103 meq/L
same,DBIL,9 h,0.08 mg/dL
same,GLC,9 h,206.4 mg/dL
same,IP,9 h,8 mg/dL
same,K,9 h,3.8 meq/L
same,LDH,9 h,196.4 IU/L
same,Na,9 h,140.6 meq/L
same,PL,9 h,141.6 mg/dL
same,RALB,9 h,3.4 g/dL
same,TBIL,9 h,0.1 mg/dL
same,TC,9 h,84.2 mg/dL
same,TG,9 h,56.8 mg/dL
same,TP,9 h,5.6 g/dL
same,gamma-GTP,9 h,1.4 IU/L
same,TERMINAL_BW,24 h,229.8 g
same,APTT,24 h,18.9 s
same,Bas,24 h,0%
same,Eos,24 h,1.2%
same,Fbg,24 h,226.2 mg/dL
same,Hb,24 h,13.5 g/dL
same,Ht,24 h,39.6%
same,Lym,24 h,82.6%
same,MCH,24 h,21.5 pg
same,MCHC,24 h,34.1%
same,MCV,24 h,63.2 fL
same,Mono,24 h,1.8%
same,Neu,24 h,13.8%
same,PT,24 h,11.7 s
same,Plat,24 h,128.8 x10_4/uL
same,RBC,24 h,627.2 x10_4/ul
same,Ret,24 h,6.6%
same,WBC,24 h,85.1 x10_2/uL
same,KIDNEY_L,24 h,1.1 g
same,KIDNEY_R,24 h,1 g
same,KIDNEY_TOTAL,24 h,2.1 g
same,LIVER,24 h,10.2 g
same,A/G,24 h,1.6
same,ALP,24 h,1035 IU/L
same,ALT,24 h,37.8 IU/L
same,AST,24 h,63.6 IU/L
same,BUN,24 h,14 mg/dL
same,CRE,24 h,0.4 mg/dL
same,Ca,24 h,10.5 mg/dL
same,Cl,24 h,103.6 meq/L
same,DBIL,24 h,0.07 mg/dL
same,GLC,24 h,208 mg/dL
same,IP,24 h,9.5 mg/dL
same,K,24 h,3.7 meq/L
same,LDH,24 h,190.6 IU/L
same,Na,24 h,141 meq/L
same,PL,24 h,150.6 mg/dL
same,RALB,24 h,3.3 g/dL
same,TBIL,24 h,0.1 mg/dL
same,TC,24 h,86.6 mg/dL
same,TG,24 h,57.8 mg/dL
same,TP,24 h,5.4 g/dL
same,gamma-GTP,24 h,1 IU/L
